The source of these data is patent US20100249093A1, “Substituted Heteroarylpiperidine Derivatives As Melanocortin-4 Receptor Modulators” (SANTHERA PHARMACEUTICALS (SCHWEIZ) AG, priority 2007, published 2010).

Assay [1] has as its target T1, human melanocortin-4 receptor (MC-4R) (Homo sapiens, UniProt P32245).
T1 construct: expressed in transfected cells; host or cells: HEK293
Kind of assay: Membrane binding assay: competition with fluorescence labeled NDP-alpha-MSH, fluorescence polarization. The following applies: HEK293 cell membrane preparations expressing human MC-4R, read-out: hMC-4R binding assay IC50.

Assay [2] deals with T1, human melanocortin-4 receptor (MC-4R). Kind of assay: Functional assay: agonistic activity, cAMP production in membrane preparations compared with NDP-alpha-MSH, fluorescence polarization. The format is biochemical. The following applies: for Emax: cAMP produced compared to stimulation with NDP-alpha-MSH, read-out: % activation functional assay.

T1 sequence (P32245 whole entry): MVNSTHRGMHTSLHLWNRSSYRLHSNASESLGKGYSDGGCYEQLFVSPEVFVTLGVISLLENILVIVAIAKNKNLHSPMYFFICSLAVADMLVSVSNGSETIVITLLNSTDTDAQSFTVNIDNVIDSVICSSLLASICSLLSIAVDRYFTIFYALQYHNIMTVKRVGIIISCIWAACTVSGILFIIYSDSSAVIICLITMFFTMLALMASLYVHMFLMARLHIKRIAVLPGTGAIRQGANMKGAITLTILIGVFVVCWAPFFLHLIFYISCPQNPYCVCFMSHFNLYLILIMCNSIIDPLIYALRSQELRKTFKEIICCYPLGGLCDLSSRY

Take `CC[C@H](COc1cccnc1C1CCN(C(=O)[C@@H](Cc2ccc(Cl)cc2Cl)NC(=O)N(C)CCOC)CC1)N1CCCC1` [Example 87]: the half-inhibitory concentration (IC50) in assay [1] is at most 100 nM. Besides, the Emax in assay [2] was found to be 0%.

Consider `CC[C@H](COc1cccnc1C1CCN(C(=O)[C@@H](Cc2ccc(Cl)cc2Cl)NC(=O)N2CCC(F)CC2)CC1)N1CCCC1` [Example 82], for which, in assay [1], the half-inhibitory concentration (IC50) was at most 100 nM. Further, in assay [2], the Emax was 0%.

Turning to `Cc1ccc(C2CCN(C(=O)[C@@H](Cc3ccc(Cl)cc3Cl)NC(=O)N3CCCC3)CC2)c(N2CCN(C)CC2)n1` [Example 4], the IC50 in assay [1] is at most 100 nM. The Emax in assay [2] is 0%.

In the case of `CN1CCN(c2cccnc2C2CCN(C(=O)[C@@H](Cc3ccc(Cl)cc3Cl)NC(=O)N3CCCC3)CC2)CC1` [Example 23], the half-inhibitory concentration (IC50) in assay [1] lay within 100 to 1000 nM. Also, the Emax in assay [2] came to 0%.

With `COC[C@@H](CN(C)C)Oc1cccnc1C1CCN(C(=O)[C@@H](Cc2ccc(Cl)cc2Cl)NC(=O)N2CCCC2)CC1` [Example 47], the half-inhibitory concentration (IC50) in assay [1] is at most 100 nM. For the same molecule, the Emax in assay [2] was -36%. In assay [2] (cAMP production, membrane preparations from HEK293 cells expressing human MC-4R, read-out: hMC-4R functional assay EC50), the EC50 lay within 100 to 1000 nM.

Consider `CC[C@H](COc1cccnc1C1CCN(C(=O)[C@@H](Cc2ccc(Cl)cc2Cl)NC(=O)N2CCC(O)(C(F)(F)F)C2)CC1)N(C)C` (stereo partly drawn) [Example 128], for which, in assay [1], the IC50 is at most 100 nM. The Emax in assay [2] is -8%.

With `CC[C@H](COc1cccnc1C1CCN(C(=O)[C@@H](Cc2ccc(Cl)cc2Cl)NC(=O)N2CCC[C@@H]2CO)CC1)N(C)C` [Example 107], the IC50 in assay [1] is at most 100 nM. Moreover, the Emax in assay [2] is -2%.

As for `CN1CC[C@H](COc2cccnc2C2CCN(C(=O)[C@@H](Cc3ccc(Cl)cc3Cl)NC(=O)N3CCCC3)CC2)C1` [Example 51], the IC50 in assay [1] lay within 100 to 1000 nM. For the same molecule, in assay [2], the Emax is 0%.

With `C[C@@H](CN1CCCC1)Oc1cccnc1C1CCN(C(=O)[C@@H](Cc2ccc(Cl)cc2Cl)NC(=O)N2CCCC2)CC1` [Example 16], the half-inhibitory concentration (IC50) in assay [1] is at most 100 nM. Besides, in assay [2], the Emax worked out at 0%.

For the molecule `CC[C@H](COc1cccnc1C1CCN(C(=O)[C@@H](Cc2ccc(Cl)cc2Cl)NC(=O)N2CC[C@H](O)C2)CC1)N1CCCC1` [Example 89], the IC50 in assay [1] was at most 100 nM. Further, in assay [2], the Emax turned out to be 0%.

On to `C[C@@H](CN(C)C)Oc1cccnc1C1CCN(C(=O)[C@@H](Cc2ccc(Cl)cc2Cl)NC(=O)N2CCCC2)CC1` [Example 15], for which, in assay [1], the 50% inhibitory concentration (IC50) was at most 100 nM. In addition, the Emax in assay [2] worked out at 0%.

On to `O=C(N[C@H](Cc1ccc(Cl)cc1Cl)C(=O)N1CCC(c2ncccc2OC2CN3CCC2CC3)CC1)N1CCCC1` (stereo partly drawn) [Example 29], for which, in assay [1], the IC50 fell in the range of 100 to 1000 nM. Besides, the Emax in assay [2] turned out to be 0%.

`CC[C@H](COc1cc(OC)cnc1C1CCN(C(=O)[C@@H](Cc2ccc(Cl)cc2Cl)NC(=O)N2CCCC2)CC1)N(C)C` [Example 36]: the IC50 in assay [1] was at most 100 nM. Moreover, the Emax in assay [2] worked out at 8%.

For `CC[C@H](COc1cccnc1C1CCN(C(=O)[C@@H](Cc2ccc(Cl)cc2Cl)NC(=O)N2CCOCC2)CC1)N1CCCC1` [Example 91], the IC50 in assay [1] was at most 100 nM. Also, the Emax in assay [2] turned out to be 0%.

Regarding `CC[C@H](COc1cccnc1C1CCN(C(=O)[C@@H](Cc2ccc(Cl)cc2Cl)NC(=O)N2CCCC2)CC1)N(C)C` [Example 18], in assay [1], the IC50 was at most 100 nM. In addition, in assay [2], the Emax is 0%.

Turning to `CN(C)[C@@H]1CCC[C@@H]1Oc1cccnc1C1CCN(C(=O)[C@@H](Cc2ccc(Cl)cc2Cl)NC(=O)N2CCCC2)CC1` [Example 57], in assay [1], the half-inhibitory concentration (IC50) was at most 100 nM. In assay [2], the Emax is 5%.

As for `CC[C@H](COc1cccnc1C1CCN(C(=O)[C@@H](Cc2ccc(Cl)cc2Cl)NC(=O)N2CC[C@H](OC(C)=O)C2)CC1)N(C)C` [Example 117], the IC50 in assay [1] was at most 100 nM. Moreover, the Emax in assay [2] is 0%.

`CC[C@H](COc1cc(C)cnc1C1CCN(C(=O)[C@@H](Cc2ccc(Cl)cc2Cl)NC(=O)N2CCCC2)CC1)N(C)C` [Example 27]: the IC50 in assay [1] was at most 100 nM. Further, in assay [2], the Emax turned out to be 0%.

As for `CN1CC[C@@H](COc2cccnc2C2CCN(C(=O)[C@@H](Cc3ccc(Cl)cc3Cl)NC(=O)N3CCCC3)CC2)C1` [Example 54], the IC50 in assay [1] is 100 to 1000 nM. For the same molecule, the Emax in assay [2] was found to be 10%.

Take `CC[C@H](COc1cccnc1C1CCN(C(=O)[C@@H](Cc2ccc(Cl)cc2Cl)NC(=O)N2CC[C@@H](N)C2)CC1)N(C)C` [Example 131]: the IC50 in assay [1] was at most 100 nM. In addition, the Emax in assay [2] is -2%.

As for `CC[C@@H](CN1CCCC1)Oc1ncccc1C1CCN(C(=O)[C@@H](Cc2ccc(Cl)cc2Cl)NC(=O)N2CCCC2)CC1` [Example 7], the IC50 in assay [1] is at most 100 nM. The Emax in assay [2] amounted to 0%.

`C[C@H](COc1cccnc1C1CCN(C(=O)[C@@H](Cc2ccc(Cl)cc2Cl)NC(=O)N2CCCC2)CC1)N(C)C` [Example 25]: the IC50 in assay [1] is at most 100 nM. In addition, the Emax in assay [2] was found to be 0%.

Regarding `CC[C@H](COc1cccnc1C1CCN(C(=O)[C@@H](Cc2ccc(Cl)cc2Cl)NC(=O)N2CC[C@H]2CO)CC1)N(C)C` [Example 127], in assay [1], the half-inhibitory concentration (IC50) was at most 100 nM. Also, the Emax in assay [2] is -3%.

With `CC[C@H](COc1cc(Cl)cnc1C1CCN(C(=O)[C@@H](Cc2ccc(Cl)cc2Cl)NC(=O)N2CCCC2)CC1)N1CCCC1` [Example 40], in assay [1], the half-maximal inhibitory concentration (IC50) is at most 100 nM. Besides, the Emax in assay [2] was -11%.

In the case of `C[C@H](Oc1cccnc1C1CCN(C(=O)[C@@H](Cc2ccc(Cl)cc2Cl)NC(=O)N2CCCC2)CC1)[C@@H](C)N(C)C` [Example 22], in assay [1], the half-inhibitory concentration (IC50) was at most 100 nM. In addition, the Emax in assay [2] was 0%.

Regarding `CC[C@H](COc1cc(Cl)cnc1C1CCN(C(=O)[C@@H](Cc2ccc(C)cc2C)NC(=O)N2CCCC2)CC1)N(C)C` [Example 73], the IC50 in assay [1] is at most 100 nM. In assay [2], the Emax is -15%.

In the case of `CC[C@H](COc1cccnc1C1CCN(C(=O)[C@@H](Cc2ccc(Cl)cc2Cl)NC(=O)N2CCC(C)(O)C2)CC1)N(C)C` (stereo partly drawn) [Example 110], in assay [1], the half-inhibitory concentration (IC50) is at most 100 nM. In addition, the Emax in assay [2] is 0%.

In the case of `CC[C@H](COc1c(C)ccnc1C1CCN(C(=O)[C@@H](Cc2ccc(Cl)cc2Cl)NC(=O)N2CCCC2)CC1)N(C)C` [Example 35], in assay [1], the IC50 lay in the range of 100 to 1000 nM. Also, the Emax in assay [2] is 7%.

As for `CC[C@H](COc1cccnc1C1CCN(C(=O)[C@@H](Cc2ccc(Cl)cc2Cl)NC(=O)N(C)CC2(C)COC2)CC1)N(C)C` [Example 134], in assay [1], the IC50 is at most 100 nM. Further, in assay [2], the Emax was -2%.

In the case of `CC[C@H](COc1cccnc1C1CCN(C(=O)[C@@H](Cc2ccc(C)cc2C)NC(=O)N2CCCC2)CC1)N1CCCC1` [Example 70], in assay [1], the IC50 is at most 100 nM. The Emax in assay [2] was -2%.

For `CC[C@H](COc1cccnc1C1CCN(C(=O)[C@@H](Cc2ccc(Cl)cc2Cl)NC(=O)N(C)CCO)CC1)N1CCCC1` [Example 86], in assay [1], the 50% inhibitory concentration (IC50) is at most 100 nM. The Emax in assay [2] came out at 0%.

Regarding `CC[C@H](COc1cccnc1C1CCN(C(=O)[C@@H](Cc2ccc(Cl)cc2Cl)NC(=O)N(C)C2COC2)CC1)N(C)C` [Example 133], the IC50 in assay [1] is at most 100 nM. For the same molecule, the Emax in assay [2] is -6%.

Consider `CC[C@H](COc1cccnc1C1CCN(C(=O)[C@@H](Cc2ccc(Cl)cc2Cl)NC(=O)N2CCC[C@H](O)C2)CC1)N(C)C` [Example 105], for which the 50% inhibitory concentration (IC50) in assay [1] is at most 100 nM. In addition, the Emax in assay [2] was -3%.

`CC[C@H](COc1cccnc1C1CCN(C(=O)[C@@H](Cc2ccc(Cl)cc2Cl)NC(=O)N2CCC[C@H]2CO)CC1)N(C)C` [Example 106]: the half-maximal inhibitory concentration (IC50) in assay [1] was at most 100 nM. For the same molecule, the Emax in assay [2] is -1%.

Regarding `CC[C@H](COc1cccnc1C1CCN(C(=O)[C@@H](Cc2ccc(Cl)cc2Cl)NC(=O)N2C[C@H]3C[C@H]3C2)CC1)N1CCCC1` [Example 97], the IC50 in assay [1] was at most 100 nM. Besides, the Emax in assay [2] came to 8%.

`CN1CCO[C@@H](COc2cccnc2C2CCN(C(=O)[C@@H](Cc3ccc(Cl)cc3Cl)NC(=O)N3CCCC3)CC2)C1` [Example 53]: the IC50 in assay [1] is over 1000 nM. Further, in assay [2], the Emax is 1%.

`CC[C@H](COc1cccnc1C1CCN(C(=O)[C@@H](Cc2ccc(Cl)cc2Cl)NC(=O)N(C)CC)CC1)N(C)C` [Example 101]: the half-maximal inhibitory concentration (IC50) in assay [1] is at most 100 nM. Further, the Emax in assay [2] is 5%.

Take `O=C(N[C@H](Cc1ccc(Cl)cc1Cl)C(=O)N1CCC(c2cccnc2O[C@H]2CN3CCC2CC3)CC1)N1CCCC1` [Example 10]: the half-inhibitory concentration (IC50) in assay [1] fell in the range of 100 to 1000 nM. The Emax in assay [2] was 0%.

With `CC[C@H](COc1cc(Cl)cnc1C1CCN(C(=O)[C@@H](Cc2ccc(C)cc2C)NC(=O)N2CC(O)C2)CC1)N(C)C` [Example 74], the concentration for half-maximal inhibition (IC50) in assay [1] is at most 100 nM. Also, the Emax in assay [2] is -5%.

With `CC[C@H](COc1cc(Cl)cnc1C1CCN(C(=O)[C@@H](Cc2ccc(C)cc2C)NC(=O)N2CCCC2)CC1)N1CCCC1` [Example 71], the half-maximal inhibitory concentration (IC50) in assay [1] is at most 100 nM. The Emax in assay [2] is -4%.

Take `CC[C@@H](CN(C)C)Oc1cccnc1C1CCN(C(=O)[C@@H](Cc2ccc(Cl)cc2Cl)NC(=O)N2CC(O)C2)CC1` [Example 136]: the IC50 in assay [1] is at most 100 nM. The Emax in assay [2] came out at 10%.

Turning to `CC[C@H](COc1cccnc1C1CCN(C(=O)[C@@H](Cc2ccc(Cl)cc2Cl)NC(=O)N2CC[C@@H](N(C)C)C2)CC1)N(C)C` [Example 132], in assay [1], the IC50 is at most 100 nM. Also, in assay [2], the Emax was -4%.

Turning to `CC[C@@H](CN(C)C)Oc1cccnc1C1CCN(C(=O)[C@@H](Cc2ccc(Cl)cc2Cl)NC(=O)N(C)CCOC)CC1` [Example 138], the half-inhibitory concentration (IC50) in assay [1] was at most 100 nM. Also, in assay [2], the Emax amounted to 9%.
